From ChEMBL document CHEMBL1136082, “Muscarinic M(3) receptor antagonists with (2R)-2-[(1R)-3,3-difluorocyclopentyl]-2-hydroxyphenylacetamide Structures. Part 2” (Bioorg Med Chem Lett, 2003)

How the values were obtained:
[1] = target: T1, Muscarinic acetylcholine receptor M1 (Homo sapiens, UniProt P11229); test: Binding affinity against human Muscarinic acetylcholine receptor M1 in transfected CHO cells; format: cell-based
T1 sequence (P11229 whole entry): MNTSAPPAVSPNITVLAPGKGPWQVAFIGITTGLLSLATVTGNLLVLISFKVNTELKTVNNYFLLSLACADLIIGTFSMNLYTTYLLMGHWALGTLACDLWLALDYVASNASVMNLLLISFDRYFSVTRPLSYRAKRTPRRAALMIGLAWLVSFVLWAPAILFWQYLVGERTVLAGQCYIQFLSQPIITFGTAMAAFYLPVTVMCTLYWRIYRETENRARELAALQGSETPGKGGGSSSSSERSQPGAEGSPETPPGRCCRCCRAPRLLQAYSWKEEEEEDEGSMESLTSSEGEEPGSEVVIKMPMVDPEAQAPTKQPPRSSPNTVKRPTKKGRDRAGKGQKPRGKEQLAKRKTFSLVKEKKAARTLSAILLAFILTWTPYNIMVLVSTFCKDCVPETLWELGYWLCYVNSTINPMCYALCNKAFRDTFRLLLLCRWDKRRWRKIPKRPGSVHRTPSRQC

[2] = target: Muscarinic acetylcholine receptor M3 (Homo sapiens, UniProt P20309); test: Binding affinity against human muscarinic acetylcholine receptor M3 in transfected CHO cells; format: cell-based
Muscarinic acetylcholine receptor M3, sequence (P20309 whole entry): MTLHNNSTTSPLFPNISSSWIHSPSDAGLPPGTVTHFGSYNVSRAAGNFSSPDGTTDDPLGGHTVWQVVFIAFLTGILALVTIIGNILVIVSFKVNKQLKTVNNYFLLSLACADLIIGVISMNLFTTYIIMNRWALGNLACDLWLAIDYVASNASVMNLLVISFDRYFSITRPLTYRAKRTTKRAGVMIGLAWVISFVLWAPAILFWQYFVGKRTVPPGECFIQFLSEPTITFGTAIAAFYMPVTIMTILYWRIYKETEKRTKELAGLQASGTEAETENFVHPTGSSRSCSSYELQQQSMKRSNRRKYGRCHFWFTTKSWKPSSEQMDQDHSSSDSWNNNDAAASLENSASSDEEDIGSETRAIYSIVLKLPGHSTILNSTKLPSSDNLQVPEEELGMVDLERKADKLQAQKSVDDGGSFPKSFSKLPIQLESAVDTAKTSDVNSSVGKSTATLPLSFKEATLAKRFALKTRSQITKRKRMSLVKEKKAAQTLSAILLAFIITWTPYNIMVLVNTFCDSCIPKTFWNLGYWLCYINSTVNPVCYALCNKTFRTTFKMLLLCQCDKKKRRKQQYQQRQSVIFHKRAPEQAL

[3] = target: T2, Muscarinic acetylcholine receptor M2 (Homo sapiens, UniProt P08172); test: Binding affinity against human muscarinic acetylcholine receptor M2 in transfected CHO cells; format: cell-based
T2 sequence (P08172 whole entry): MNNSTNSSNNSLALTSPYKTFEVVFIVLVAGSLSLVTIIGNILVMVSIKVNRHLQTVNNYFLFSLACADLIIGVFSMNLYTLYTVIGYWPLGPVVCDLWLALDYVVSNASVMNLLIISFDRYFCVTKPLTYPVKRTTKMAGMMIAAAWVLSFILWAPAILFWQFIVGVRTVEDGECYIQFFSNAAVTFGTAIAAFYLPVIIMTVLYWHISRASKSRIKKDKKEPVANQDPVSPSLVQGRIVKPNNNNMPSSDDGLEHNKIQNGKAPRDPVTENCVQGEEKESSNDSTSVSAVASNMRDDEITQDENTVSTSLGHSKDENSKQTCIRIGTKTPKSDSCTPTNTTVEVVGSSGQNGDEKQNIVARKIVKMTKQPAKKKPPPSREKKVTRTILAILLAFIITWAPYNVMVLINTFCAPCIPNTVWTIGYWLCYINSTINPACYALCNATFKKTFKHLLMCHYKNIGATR

[4] = In vitro metabolic stability determined after 30 min of incubation in dog hepatic microsomes; format: ADME, Canis lupus familiaris; settings: liver microsomes, read-out: Metabolic stability
[5] = In vitro metabolic stability determined after 30 min of incubation in human hepatic microsomes; format: ADME; settings: liver microsomes, read-out: Metabolic stability
[6] = In vitro metabolic stability determined after 30 min of incubation in rat hepatic microsomes; format: ADME; settings: liver microsomes, read-out: Metabolic stability
[7] = Area under curve was determined after 0.1 mg/kg iv administration in dog; format: ADME, organism-based, Canis lupus familiaris; set-up: dose 0.1 mg/kg, route intravenous; settings: in vivo
[8] = Area under curve was determined after 0.3 mg/kg po administration in dog; format: ADME, organism-based, Canis lupus familiaris; set-up: dose 0.3 mg/kg, route oral; settings: in vivo
[9] = Half-life of the compound after 0.3 mg/kg po administration in dog; format: ADME, organism-based, Canis lupus familiaris; set-up: dose 0.3 mg/kg, route oral; settings: in vivo
[10] = Cmax after 0.3 mg/kg po administration in dog; format: ADME, organism-based, Canis lupus familiaris; set-up: dose 0.3 mg/kg, route oral; settings: in vivo
[11] = Vdss was determined after iv 0.1 mg/kg administration in dog; format: ADME, organism-based, Canis lupus familiaris; set-up: dose 0.1 mg/kg, route intravenous; settings: in vivo, read-out: Vdss
[12] = Total clearance was determined after 0.1 mg/kg iv administration in dog; format: ADME, organism-based, Canis lupus familiaris; set-up: dose 0.1 mg/kg, route intravenous; settings: in vivo, read-out: CLtotal
[13] = Oral bioavailability after 0.3 mg/kg po administration in dog; format: ADME, organism-based, Canis lupus familiaris; settings: in vivo

| Compound | Ki [1] [nM] | Ki [2] [nM] | Ki [3] [nM] | other results |
| --- | --- | --- | --- | --- |
| NCCN1CCN(C(=O)[C@](O)(c2ccccc2)[C@@H]2CCC(F)(F)C2)CC1 | 11 | 9.6 | 820 | – |
| NCc1ccc(NC(=O)[C@](O)(c2ccccc2)[C@@H]2CCC(F)(F)C2)cc1 | 740 | 650 | 5300 | – |
| CC1(N)CCN(C(=O)[C@](O)(c2ccccc2)[C@@H]2CCC(F)(F)C2)CC1 | 4.7 | 8.3 | 640 | – |
| CC(C)(N)CC1CCN(C(=O)[C@](O)(c2ccccc2)[C@@H]2CCC(F)(F)C2)CC1 | 37 | 26 | 1000 | – |
| CNCCC1CCN(C(=O)[C@](O)(c2ccccc2)[C@@H]2CCC(F)(F)C2)CC1 | 140 | 120 | 5400 | – |
| CN(C)CCC1CCN(C(=O)[C@](O)(c2ccccc2)[C@@H]2CCC(F)(F)C2)CC1 | 760 | 930 | 15000 | – |
| NCCCCC1CCN(C(=O)[C@](O)(c2ccccc2)[C@@H]2CCC(F)(F)C2)CC1 | 140 | 76 | 4200 | – |
| NC1CCN(C(=O)[C@](O)(c2ccccc2)[C@@H]2CCC(F)(F)C2)CC1 | 3 | 5.1 | 240 | remaining at 0.5 h [4]: 88%; remaining at 0.5 h [5]: 86%; remaining at 0.5 h [6]: 100% |
| O=C(NCC1CCNCC1)[C@](O)(c1ccccc1)[C@@H]1CCC(F)(F)C1 | 23 | 17 | 2200 | – |
| CCC1(CCN)CCN(C(=O)[C@](O)(c2ccccc2)[C@@H]2CCC(F)(F)C2)CC1 | 1 | 7 | 300 | – |
| NCC(=O)N1CCN(C(=O)[C@](O)(c2ccccc2)[C@@H]2CCC(F)(F)C2)CC1 | 21 | 16 | 300 | – |
| NCCCC1CCN(C(=O)[C@](O)(c2ccccc2)[C@@H]2CCC(F)(F)C2)CC1 | 92 | 47 | 2800 | – |
| NCCC1CCN(C(=O)[C@](O)(c2ccccc2)[C@@H]2CCC(F)(F)C2)CC1 | 6.6 | – | – | AUC [7]: 150 ng·h/mL; AUC [8]: 440 ng·h/mL; remaining at 0.5 h [4]: 100%; remaining at 0.5 h [5]: 82%; half-life [9]: 6.9 h; remaining at 0.5 h [6]: 100%; Cmax [10]: 43 ng/mL; Vd [11]: 9.4 L/kg; clearance [12]: 13 mL/min/kg; bioavailability [13]: 98% |
| NCC1CCN(C(=O)[C@](O)(c2ccccc2)[C@@H]2CCC(F)(F)C2)CC1 | 11 | 11 | 760 | remaining at 0.5 h [4]: 100%; remaining at 0.5 h [5]: 100%; remaining at 0.5 h [6]: 98% |
| O=C(N1CCCNCC1)[C@](O)(c1ccccc1)[C@@H]1CCC(F)(F)C1 | 14 | 17 | 1100 | – |
| O=C(N1CCNCC1)[C@](O)(c1ccccc1)[C@@H]1CCC(F)(F)C1 | 30 | 50 | 1200 | – |
| CC1(CCN)CCN(C(=O)[C@](O)(c2ccccc2)[C@@H]2CCC(F)(F)C2)CC1 | 1.5 | 3.3 | 210 | – |
| O=C(N1CCC(CCN2CCCCC2)CC1)[C@](O)(c1ccccc1)[C@@H]1CCC(F)(F)C1 | 1900 | 2400 | 36000 | – |
| NC1CCN(C(=O)[C@](O)(c2ccccc2)C2CCCC2)CC1 | 0.98 | 1.4 | 11 | remaining at 0.5 h [4]: 89%; remaining at 0.5 h [5]: 92%; remaining at 0.5 h [6]: 40% |
| NCCC1CCN(C(=O)[C@](O)(c2ccccc2)C2CCCC2)CC1 | 2.1 | 1.1 | 41 | remaining at 0.5 h [4]: 84%; remaining at 0.5 h [5]: 86%; remaining at 0.5 h [6]: 77% |
| NCC1CCN(C(=O)[C@](O)(c2ccccc2)C2CCCC2)CC1 | 1.8 | 1.7 | 28 | remaining at 0.5 h [4]: 100%; remaining at 0.5 h [5]: 91%; remaining at 0.5 h [6]: 72% |
| NCc1cccc(NC(=O)[C@](O)(c2ccccc2)[C@@H]2CCC(F)(F)C2)c1 | 210 | 93 | 2900 | – |
| O=C(NCCC1CCNCC1)[C@](O)(c1ccccc1)[C@@H]1CCC(F)(F)C1 | 140 | 89 | 3900 | – |
| O=C(NC1CCNCC1)[C@](O)(c1ccccc1)[C@@H]1CCC(F)(F)C1 | 310 | 320 | 15000 | – |
| O=C(Nc1ccc2c(c1)CNC2)[C@](O)(c1ccccc1)[C@@H]1CCC(F)(F)C1 | 630 | 290 | 15000 | – |
| NCC1CCN(C(=O)[C@](O)(c2ccccc2)[C@@H]2CCC(F)(F)C2)C1 (stereo not given in full) | 2.1 | 2.9 | 130 | – |
| Nc1cccc(CN2CCC(NC(=O)[C@](O)(c3ccccc3)[C@@H]3CCC(F)(F)C3)CC2)n1 | – | – | – | remaining at 0.5 h [4]: 84%; remaining at 0.5 h [5]: 80%; remaining at 0.5 h [6]: 46% |
| NCC1CCC(NC(=O)[C@](O)(c2ccccc2)[C@@H]2CCC(F)(F)C2)CC1 (stereo not given in full) | 55 | 100 | 6800 | – |
| NCC=C1CCN(C(=O)[C@](O)(c2ccccc2)[C@@H]2CCC(F)(F)C2)CC1 | 1.3 | 1.2 | 55 | – |
